The values that follow come from ChEMBL document CHEMBL5321246, “Aurones: A Promising Scaffold to Inhibit SARS-CoV-2 Replication” (J Nat Prod, 2023).

A short description of data set [1]: Cytotoxicity against human Calu-3 cells assessed as cell viability at 250 uM incubated for 72 hrs by methylene blue assay relative to control. It counts as toxicity, cell-based. The note with it: read-out: Activity.
In data set [2] the test system is SARS-CoV-2. Kind of data set: Antiviral activity against SARS-CoV-2 B.1 lineage isolate infected in human Calu-3 cells assessed as inhibition of viral replication at 10 uM infected with cells for 1 hr followed by compound addition and measured 24 hrs post infection by crystal violet staining based PFU assay relative to control. It counts as functional. Particulars: Severe acute respiratory syndrome coronavirus 2, B.1, Calu-3.

For data set [3], the system named is SARS-CoV-2. The data set is described as follows: Antiviral activity against SARS-CoV-2 B.1 lineage isolate infected in human Calu-3 cells assessed as inhibition of viral replication at 1 uM infected with cells for 1 hr followed by compound addition and measured 24 hrs post infection by crystal violet staining based PFU assay relative to control. It counts as functional. Particulars: Severe acute respiratory syndrome coronavirus 2, B.1, Calu-3.

Data set [4] relates to SARS-CoV-2. The data set is described as follows: Antiviral activity against SARS-CoV-2 B.1 lineage isolate infected in human Calu-3 cells assessed as inhibition of viral replication infected with cells for 1 hr followed by compound addition and measured 24 hrs post infection by crystal violet staining based PFU assay. The format is functional, organism-based. Particulars: Severe acute respiratory syndrome coronavirus 2, B.1, Calu-3.

Data set [5] can be described thus: Cytotoxicity against human Calu-3 cells assessed as reduction in cell viability incubated for 72 hrs by methylene blue assay. The format is toxicity, cell-based.
A short description of data set [6]: Selectivity index, ratio of CC50 for cytotoxicity against human Calu-3 cells to EC50 for antiviral activity against SARS-CoV-2 B.1 lineage isolate infected in human Calu-3 cells. The format is toxicity, cell-based. Particulars: read-out: Ratio CC50/EC50.
The subject of data set [7] is SARS-CoV-2. The data set is described as follows: Antiviral activity against SARS-CoV-2 B.1 lineage infected in human Calu-3 cells assessed as inhibition of viral replication. The format is functional, organism-based. The note with it: Severe acute respiratory syndrome coronavirus 2, B.1, Calu-3.
Data set [8] relates to SARS-CoV-2. Kind of data set: Potency index, ratio of myricetin EC50 to test compound EC50 for antiviral activity against SARS-CoV-2 infected in human Calu-3 cells assessed as inhibition of viral replication. The format is functional, Severe acute respiratory syndrome coronavirus 2.
Data set [9] concerns SARS-CoV-2. Kind of data set: Potency index, ratio of baicalein EC50 to test compound EC50 for antiviral activity against SARS-CoV-2 infected in human Calu-3 cells assessed as inhibition of viral replication. It counts as functional, Severe acute respiratory syndrome coronavirus 2.
Data set [10] deals with SARS-CoV-2. The data set is described as follows: Antiviral activity against SARS-CoV-2 infected in human Calu-3 cells assessed as inhibition of viral replication incubated for 48 hrs by PFU assay. The note with it: Severe acute respiratory syndrome coronavirus 2, Calu-3, 48 h. The format is functional, organism-based.

In general, inhibition refers to the relative decrease from the control value, in per cent. For `O=C1/C(=C/c2ccccc2)Oc2ccccc21` [(Z)-AURONE], the viability at 72 h, 250 µM in data set [1] was at least 80%. Also, the inhibition at 10 µM in data set [2] came to 81.2%. In addition, the inhibition at 1 µM in data set [3] was below 1%.
Consider `COc1ccc(/C=C2\Oc3cc(O)cc(O)c3C2=O)cc1`, for which the viability at 72 h, 250 µM in data set [1] was at least 80%. In data set [2], the inhibition at 10 µM was found to be 68.4%.
By EC50 is commonly meant the concentration needed to bring the measured effect to its halfway point. Broadly, the CC50 is the concentration giving 50% cytotoxicity. Regarding `COc1ccc(/C=C2\Oc3c(ccc(O)c3O)C2=O)cc1`, in data set [4], the EC50 was 4.6 µM. In addition, the viability at 72 h, 250 µM in data set [1] is at least 80%. For the same compound, the inhibition at 10 µM in data set [2] came to 62.2%. Besides, the inhibition at 1 µM in data set [3] turned out to be 25.9%. Moreover, the CC50 at 72 h in data set [5] is above 300 µM. Moreover, the selectivity ratio in data set [6] was above 65.2.
Regarding `COCOc1cc(OC)ccc1/C=C1\Oc2ccccc2C1=O`, in [4], the concentration giving a half-maximal response (EC50) amounted to 8.2 µM. Further, in [1], the viability at 72 h, 250 µM is at least 80%. Moreover, the inhibition at 10 µM in data set [2] worked out at 58.3%. Further, the CC50 at 72 h in [5] is above 250 µM. In [6], the selectivity ratio was above 30.5.
Consider `COc1ccc(/C=C2\Oc3cc(OCc4ccccc4)ccc3C2=O)cc1`, for which the half-maximal effective concentration (EC50) in [4] came to 2.2 µM. The viability at 72 h, 250 µM in [1] is at least 80%. Besides, the inhibition at 10 µM in data set [2] was found to be 91%. In addition, the inhibition at 1 µM in data set [3] worked out at 36.1%. The CC50 at 72 h in data set [5] was above 300 µM. For the same compound, in data set [6], the selectivity ratio is above 136.
With `O=c1c(O)c(-c2cc(O)c(O)c(O)c2)oc2cc(O)cc(O)c12` [MYRICETIN], in data set [7], the EC50 was found to be 0.9 µM.
In the case of `COCOc1ccc2c(c1)O/C(=C\c1ccc(OC)cc1OCOC)C2=O`, the half-maximal effective concentration (EC50) in [4] came to 0.35 µM. Also, the figures for the “Ratio EC50” value in [8] and in [9] were 2 and 3, respectively. In data set [1], the viability at 72 h, 250 µM was at least 80%. Also, the inhibition at 10 µM in data set [2] worked out at 96.2%. Moreover, the inhibition at 1 µM in [3] stood at 82.5%. Besides, the CC50 at 72 h in data set [5] is 976 µM. The selectivity ratio in data set [6] stood at 2440.
`COc1cc(O)c2c(=O)c(OC)c(-c3ccc(OC)c(OC)c3)oc2c1` [RETUSIN]: the EC50 in data set [10] came out at 0.6 µM.
For the compound `COc1ccc(/C=C2\Oc3cc(O)ccc3C2=O)cc1`, the EC50 in data set [4] was above 10 µM. In addition, the viability at 72 h, 250 µM in data set [1] was at least 80%. Also, the inhibition at 10 µM in data set [2] came out at 24%. Moreover, the CC50 at 72 h in data set [5] was above 250 µM.
As to `O=c1c(O)c(-c2ccc(O)cc2)oc2cc(O)cc(O)c12` [KAEMPFEROL], the EC50 in data set [7] worked out at 3 µM.
Turning to `COc1cccc2c1C(=O)/C(=C/c1ccccc1)O2`, in data set [1], the viability at 72 h, 250 µM was at least 80%. The inhibition at 10 µM in [2] came out at 90.9%. The inhibition at 1 µM in data set [3] was below 1%.
`O=C1/C(=C/c2ccc3c(c2)OCO3)Oc2ccccc21`: the viability at 72 h, 250 µM in [1] was at least 80%. Besides, in data set [2], the inhibition at 10 µM is 44.6%. For the same compound, in [3], the inhibition at 1 µM came to 69.5%.
In the case of `COCOc1ccc2c(c1OCOC)O/C(=C\c1ccc(OC)cc1)C2=O`, the viability at 72 h, 250 µM in data set [1] was at least 80%. Besides, the inhibition at 10 µM in data set [2] is 58.2%. Also, in [3], the inhibition at 1 µM was below 1%.
For `O=C1/C(=C/c2ccc(Cl)cc2)Oc2ccccc21`, the viability at 72 h, 250 µM in data set [1] was at least 80%. Also, the inhibition at 10 µM in data set [2] is 68.8%.
With `COc1cc(O)c2c(=O)c(OC)c(-c3ccc(O)cc3)oc2c1` [KUMATAKENIN], the EC50 in data set [10] was 0.3 µM.
As to `COc1ccc2c(c1)O/C(=C\c1ccccc1)C2=O`, the EC50 in [4] came to 0.49 µM. Also, the viability at 72 h, 250 µM in [1] was at least 80%. Also, the inhibition at 10 µM in data set [2] came to 99.7%. Besides, the inhibition at 1 µM in data set [3] came out at 59.1%. Also, in data set [5], the CC50 at 72 h was above 1000 µM. Moreover, the selectivity ratio in [6] is above 2000.
Consider `COc1cc(/C=C2\Oc3ccccc3C2=O)cc(OC)c1OC`, for which the EC50 in [4] turned out to be 5.8 µM. Besides, the viability at 72 h, 250 µM in [1] was at least 80%. Also, in [2], the inhibition at 10 µM was found to be 66.4%. Moreover, the cytotoxic concentration (CC50) at 72 h in data set [5] was above 250 µM. Further, the selectivity ratio in data set [6] was above 43.1.
Consider `COCOc1cc(/C=C2\Oc3cc(OC)ccc3C2=O)ccc1OC`, for which the EC50 in [4] was 2.3 µM. Further, the viability at 72 h, 250 µM in [1] is at least 80%. In addition, the inhibition at 10 µM in data set [2] stood at 88.2%. Also, in data set [3], the inhibition at 1 µM was found to be 34.1%. Besides, in data set [5], the CC50 at 72 h was above 1000 µM. The selectivity ratio in [6] is above 435.
